Laboratory results as given in US10435385B2, “Amide derivatives, process for preparation thereof and use thereof as insecticide” (MITSUI CHEMICALS, INC., priority 2004, dated 2019).

Tests used:
[1] = tested on: common cutworm (Spodoptera litura); test: Insecticidal testing against common cutworm (cabbage leaf dip, second-stage larvae); type: in vivo; conditions: comparative test, procedure and conditions of Experimental Example 1
Experimental: (§1) Insecticidal Testing Against Common Cutworm (Spodoptera litura) Cabbage leaves were immersed in a liquid comprising the testing compound to a predetermined concentration for 30 seconds and air-dried. They were placed in a 7-cm polyethylene cup, and the second-stage larvae of common cutworm were left therein. The cup was placed in a constant-temperature room at 25° C., and the survival rate was investigated after 3 days. The test was carried out with two groups of 5 larvae per group. As a result, Compound No. (to be described later)

[2] = tested on: diamondback moth (Plutella xylostella); test: Insecticidal testing against diamondback moth (cabbage leaf dip, second-stage larvae); type: in vivo; conditions: comparative test, procedure and conditions of Experimental Example 2
Experimental: as §1, with “Diamondback Moth (Plutella xylostella)” for “Common Cutworm (Spodoptera litura)”, “diamondback moth” for “common cutworm”

SMILES: Cc1cc(C(F)(C(F)(F)F)C(F)(F)F)ccc1NC(=O)c1cccc(NC(=O)c2ccccc2I)c1 [Compound A, N-(4-heptafluoroisopropyl-2-methyl)phenyl 3-(2-iodobenzoylamino)benzamide]
- insecticidal activity [1]: not observed
- insecticidal activity [2]: not observed

SMILES: Cc1cc(C(F)(F)F)cc(C)c1NC(=O)c1cccc(NC(=O)c2ccccc2)c1 [Compound B, N-(2,6-dimethyl-4-trifluoromethyl)phenyl 3-(benzoylamino)benzamide]
- insecticidal activity [1]: not observed
- insecticidal activity [2]: not observed
